# Like-named read-outs stand apart in the source and are kept apart here.
# Tests used:
# HTLV-III/LAV = conditions: monocyte-related cell line H9; Schaffner et al. (1986); cited from earlier work
# C. albicans [1] = assay: Antifungal activity (MIC) of free versus liposomal polyenes; format: cell-based
# Protocol: The antifungal activity of free-verses liposomal-small polyenes was determined in vivo. These small polyenes included filipin, lagosin and natamycin.
# The in vivo toxicity of liposomal small polyenes was evaluated in groups of 8 Hale-Stone mice (6-8 weeks old, body weight =20-25g; University of Texas Science Park, Bastrop, Tex.). Liposomal polyenes were prepared following the protocol set forth in Example 2. Each liposomal-small polyene formulated and evaluated in this study, listed in table 6, was administered to a group of normal and a group of infected mice. These infected mice were prepared by injection with 0.2 ml. of C. albicans according to the protocol set forth in Example 6.
# The data on MIC of various liposomal-mepartricin preparations in normal and infected mice is presented for each of the small polyenes (filipin, lagasin natamysin and nystatin) and large polyenes in Table 6.
# [2] = system: Candida albicans (strain 336); assay: In vitro fungal inhibition (MIC), twofold serial dilution; format: cell-based
# Protocol: The antifungal activity of free- verses liposomalhamycin against Candida albicans (strain 336) was determined in vitro. All strains of yeast were grown overnight at 37° C. on Sabouraud dextrose agar (SDA) plates. All molds were grown at 30° C. on SDA for 3 to 10 days prior to collection of spores. The inoculum was then processed for susceptibility testing as described earlier (Hopfer et al. (1984), Antimicrob. Agents Chemotherap., 25:387-389). A twofold serial dilutron method (Shadomy et al., In E. H. Lennette, et al., (eds.) Manual of Clinical Microbiology, 3rd ed. American Society for Microbiology, Washington, D.C. , pp. 647-653 (1980)) adapted to microtiter plates was used to determine the minimal inhibitory concentration (MIC) of the drugs.
# The antifungal activity of free- versus liposomal-lucensomycin against Candida albicans (Strain 336) was determined in vitro. […] The MIC of free-lucensomycin was compared with that of liposomal-lucensomycin.
# [3] = principal sterol of fungal versus human cell membranes; cited from earlier work
# human RBCs = assay: In vitro toxicity: lysis of human red blood cells (hemoglobin release at 540 nm); conditions: 45 min
# Text: Lysis of human red blood cells (RBCs) was quantitated by measuring the release of hemoglobin in the supernatants at 540 nm, as described previously (Mehta et al., (1984) Biochem. Biophys, Acta., 770:230-234). […] Release of hemoglobin by hypotonic lysis of the same number of human RBCs by water was taken as 100% positive control, while cells treated with PBS were taken as negative controls.
# Lysis of human red blood cells (RBCs) was quantitated by measuring the release of hemoglobin in the supernatants at 540 nm, as described previously (Mehta et al., Biochem. Biophys, Acta., Vol. 770, pp. 230-234 (1984)). […] Release of hemoglobin by hypotonic lysis of the same number of human RBCs by water was taken as 100% positive control, while cells treated with PBS were taken as negative controls.
# Lysis of human red blood cells (RBCs) was quantitated by measuring the release of hemoglobin in the supernatants at 540 nm, as described previously (Mehta et al., (1984) Biochem. Biophys. Acta., 770:230-234). […] Release of hemoglobin by hypotonic lysis of the same number of human RBCs by water was taken as 100% positive control, while cells treated with PBS were taken as negative controls.
# Lysis of human red blood cells (RBCs) was quantitated by measuring the release of hemoglobin in the supernatants at 540 nm, as described previously (Mehta, et al. (1984) Biochem. Biophys. Acta, 770:230-234). […]
# C. albicans [4] = assay: Single dose therapy of disseminated Candida albicans infection in mice; format: in vivo; conditions: free-hamycin from 5 microgram/mouse, versus control untreated group
# Protocol: Hale-Stoner mice, six to eight weeks old (body weight, 20-25 g) were purchased from The University of Texas Science Park (Bastrop, TX). The mice (eight per group) were injected with 0.2 ml of C. albicans cell suspension containing 7×10^5 colony-forming units (cfu) via the tail vein. This concentration of cells was consistent in producing a disseminated infection after 48 hr, affecting primarily the liver, spleen, lungs and kidneys.
# Mice were infected with C. albicans as described in Example 7. […] The survival of the animals in each group was recorded.
molecule,measurement,setting,value
C[C@@H]1[C@H](O)[C@@H](C)/C=C/C=C/C=C/C=C/C=C/C=C/C=C/[C@H](O[C@@H]2O[C@H](C)[C@@H](O)[C@H](N)[C@@H]2O)C[C@@H]2O[C@](O)(C[C@@H](O)C[C@@H](O)[C@H](O)CC[C@@H](O)C[C@@H](O)CC(=O)O[C@H]1C)C[C@H](O)[C@H]2C(=O)O [Amphotericin B],Replication of HTLV-III/LAV (in words),HTLV-III/LAV,inhibited
same,"MIC, free",C. albicans [1],0.4 µg/mL
"COc1cc2c(c3oc(-c4ccccc4)cc(=O)c13)C=CC(C)(C)O2 [Candidin, candidin]","MIC, free",C. albicans [1],5.0 µg/mL
"CCCCC[C@@H](O)[C@H]1C(=O)O[C@H](C)[C@@H](O)/C=C/C=C/C=C/C=C/C=C(\C)[C@@H](O)C[C@H](O)C[C@H](O)C[C@H](O)C[C@H](O)C[C@H](O)C[C@@H]1O [Filipin, filipin]","MIC, free",C. albicans [1],8.0 to 16.0 µg/mL
"CCCCC[C@@H](O)[C@H]1C(=O)O[C@H](C)[C@@H](O)/C=C/C=C/C=C/C=C/C=C(\C)[C@@H](O)[C@H](O)[C@H](O)C[C@H](O)C[C@H](O)C[C@H](O)C[C@H](O)C[C@@H]1O [Lagosin, lagosin]","MIC, free",C. albicans [1],4.0 µg/mL
"CCCCC1C/C=C/C=C/C=C/C=C/C(O[C@@H]2O[C@H](C)[C@@H](O)[C@H](N)[C@@H]2O)CC2OC(O)(CC(O)CC3OC3/C=C/C(=O)O1)CC(O)C2C(=O)O (some centres unmarked) [Lucensomycin, lucensomycin]",Maximum solubility,DMFA,10000 µg/mL
same,Solubility in DMFA at 1 mg/ml,"DMFA, 1 mg/ml",Yes
same,Maximum solubility,DMSO,20000 µg/mL
same,Solubility in DMSO at 1 mg/ml,"DMSO, 1 mg/ml",Yes
same,Maximum solubility,methanol,500 µg/mL
same,Solubility in methanol at 1 mg/ml,"methanol, 1 mg/ml",Partial
same,Solubility in water/saline at 1 mg/ml,"water/saline, 1 mg/ml",nil
same,Antifungal activity (in words),"[2]; in vitro, with or without cholesterol where stated",high antifungal activity
same,Avidity for ergosterol compared to cholesterol (in words),[3],greater avidity for ergosterol
same,Lysis of human RBCs,"human RBCs; 10 mg/ml, 37° C.",70%
same,Lysis of human RBCs,"human RBCs; 30 mg/ml, liposomes without cholesterol",approximately 100%
"C[C@@H]1C/C=C/C=C/C=C/C=C/[C@H](O[C@@H]2O[C@H](C)[C@@H](O)[C@H](N)[C@@H]2O)C[C@@H]2O[C@](O)(C[C@@H](O)C[C@H]3O[C@@H]3/C=C/C(=O)O1)C[C@H](O)[C@H]2C(=O)O [Natamycin, natamycin]","MIC, free",C. albicans [1],4.0 µg/mL
C[C@@H]1[C@H](O)[C@@H](C)/C=C/C=C/CC/C=C/C=C/C=C/C=C/C(O[C@H]2O[C@H](C)[C@@H](O)[C@H](N)[C@@H]2O)CC2O[C@](O)(CC(O)C(O)CCC(O)CC(O)CC(O)CC(=O)O[C@H]1C)CC(O)C2C(=O)O (some centres unmarked) [Nystatin],"MIC, free",C. albicans [1],1.0 µg/mL
COC(=O)[C@H]1[C@@H]2C[C@@H](O[C@@H]3O[C@H](C)[C@@H](O)[C@H](N)[C@@H]3O)/C=C/C=C/C=C/C=C/C=C/C=C/C=C/[C@H](C)[C@@H](O)[C@@H](C)[C@H](C)OC(=O)C[C@H](O)C[C@H](O)CC[C@@H](O)[C@H](O)C[C@H](O)C[C@](O)(C[C@@H]1O)O2 [amphotericin B methyl ester ascorbate],Replication of HTLV-III/LAV (in words),HTLV-III/LAV,inhibited
hamycin,MIC,"[2]; Candida albicans strain 336, in vitro",0.25 microgram/ml
same,Avidity for ergosterol compared to cholesterol (in words),[3],greater avidity for ergosterol
same,Survival of infected mice (in words),C. albicans [4],None of the doses tested improved the survival of infected mice
mepartricin,"MIC, free",C. albicans [1],2.0 to 4.0 µg/mL

# Reference: patent publication US5032404A, “Lipsome-incorporation of polyenes” (priority 1989, dated 1991)
